Assay [1] deals with PA1b binding site. Nature of the assay: Ligand binding to the PA1b-binding site using 125I-PA1b. Particulars: for binding to the PA1b-binding site (in words): 125I-PA1b ligand binding; for Ki: affinity to the PA1b binding site, ligand binding using 125I-PA1b, according to [12], '-' = no binding in the range assayed. Here is the method: The affinity of synthetic peptides for the PA1b-binding site was determined by ligand binding using ^125I-toxin [12].

The test system of assay [2] is Sf9 cells. In kind it is cell-based, Spodoptera frugiperda. Particulars: for LC50: cultured Sf9 cells, 15 000 cells/well, 24 h exposure, 27 °C, CellTiter-Blue, according to Rahioui et al. [32], '-' = no toxicity in the range assayed. Here is the method:
Sf9 cells lines were grown at 27 °C in Lonza’s culture medium, supplemented with 5 % fetal bovine serum (FBS) and 0.1 % gentamicin. Sf9 cells were seeded, in 96-well plates, 24 h prior to the experiments (15 000 cells/well) and were exposed to increasing concentrations of synthetic peptide. After this 24 h period, cell viability was determined using the CellTiter-Blue Viability Assay (Promega), according to the manufacturer’s instructions. After addition of the dye, the cells were incubated at 27 °C for 4 h. The absorbance, at 570 and 600 nm, was then measured using a microplate reader (MR 7000, Dynatech Laboratories Inc., USA).
In general terms: Resazurin is reduced to fluorescent resorufin, in cell work by metabolically active cells.

The subject of assay [3] is Sitophilus. In kind it is in vivo. Particulars: standard Sitophilus mortality assay [17]; data not shown.
For assay [4], the system named is Sf9 cell ramp membrane current. Kind of assay: Whole-cell patch-clamp: blockage of Sf9 cell ramp membrane current. The assay is classed as cell-based, Spodoptera frugiperda. Particulars: Sf9 cells; for EC50: whole-cell patch clamp, voltage ramps 1.5 s from −100 to 90 mV, measured at +50 mV, Hill fit with 100 % blockage as fixed maximum, mean ± S.E., n = 9 (AG41), n = 8 (PA1b), SEM, read-out: EC50, inhibition of ramp membrane current. Here is the method: We further investigated the AG41’s biological activity by performing an electrophysiological experiment on cultured Sf9 cells to check whether its cell-membrane ion transport alteration differed from that of PA1b, the model pea peptide. […] At 35 nM, AG41 decreased by approximately 35 % the ramp current amplitude measured at +50 mV (from 68 pA to 44 pA), while a similar concentration of 37.5 nM PA1b had no effect (trace from AG41 even differed from control at 3.5 nM).
Current recordings were made at room temperature, under voltage clamp using the whole-cell configuration of the patch-clamp technique. Command voltage and data acquisition were performed with pClamp software (Axon Instruments, Foster city, CA, USA). The holding potential was −80 mV. Membrane currents were evoked, every 10 s, by voltage ramps of 1.5 s in duration applied from −100 to 90 mV, filtered at 300 Hz and sampled at 1 kHz with an analogue-to-digital converter (Labmaster TM 40, Scientific Solutions Inc., Solon OH, USA). The external solution contained (in mM): 135 NaCl, 4 KCl, 2 MgCl2, 10 CaCl2 and 10 Mes, adjusted to pH 6.4 with NaOH. The internal solution contained (in mM): 140 K-aspartate, 1 MgCl2, 3 K2-ATP, 5 EGTA and 5 Hepes, adjusted to pH 7.2 with KOH. Salts were purchased from Sigma-Aldrich and peptides were prepared as 60 % (v/v) ethanol stock solution as previously described.
Biological results are expressed as the mean ± S.E.M., n indicating the number of Sf9 cells studied (electrophysiology). Statistical comparisons were made using a Mann–Whitney U or Wilcoxon tests at the 95 % confidence level.
For orientation: The patch-clamp technique gives a direct electrical read-out from membranes.

Bridge positions count the residues as written; N and C are the ends. Ends that are not written are not given here. Peptide text beside a SMILES is read from it.

As a reminder, the Ki is a measure of affinity in units of concentration, obtained from inhibition or displacement. The low end stands for tighter binding, the high end for weaker binding. A word on the LC50: it is the concentration lethal to half of the exposed cells or organisms. The low end stands for a more lethal substance, the high end for a less lethal substance. The EC50 is the concentration at which the effect is half-maximal.

With `CC[C@H](C)[C@@H]1NC(=O)CNC(=O)[C@H](CO)NC(=O)[C@@H](NC(=O)[C@H](CC(=O)O)NC(=O)[C@H](C)N)CSSC[C@@H]2NC(=O)[C@H](CC(=O)O)NC(=O)[C@H](CO)NC(=O)[C@H](CO)NC(=O)[C@H](CCCNC(=N)N)NC(=O)[C@@H]3CSSC[C@@H](C(=O)N[C@H](C(=O)N[C@@H](CC(N)=O)C(=O)N4CCC[C@H]4C(=O)N[C@H](C(=O)N[C@@H](CO)C(=O)O)[C@@H](C)CC)[C@@H](C)CC)NC(=O)[C@H](Cc4ccccc4)NC(=O)CNC(=O)CNC(=O)[C@H]([C@@H](C)CC)NC(=O)[C@H](CC(C)C)NC(=O)[C@H](C)NC(=O)[C@H]([C@@H](C)CC)NC(=O)[C@@H]4CCCN4C(=O)[C@H]([C@@H](C)CC)NC(=O)[C@H](CSSC[C@H](NC1=O)C(=O)N[C@@H](CO)C(=O)N1CCC[C@H]1C(=O)N[C@@H](Cc1ccccc1)C(=O)N[C@@H](CCC(=O)O)C(=O)N[C@@H](CCSC)C(=O)N1CCC[C@H]1C(=O)N1CCC[C@H]1C(=O)N3)NC(=O)[C@H](CCCNC(=N)N)NC2=O` [AS37] (H-ADCSGICSPFEMPPCRSSDCRCIPIALIGGFCINPIS-OH; disulfide 3-20, 7-22, 15-32 (inferred); N-terminus and C-terminus assumed), in assay [1], the “binding to the PA1b-binding site (in words)” value (“binding” for short) was “revealed binding properties” and the Ki was determined as 15 ± 2 nM. In assay [2], this compound displayed an LC50 of 107 ± 3.2 nM. The “toxicity in Sitophilus mortality assay (in words)” value (“toxicity … (in words)” for short) in assay [3] was “toxic”.

Regarding `CC[C@H](C)[C@@H]1NC(=O)[C@H](Cc2ccccc2)NC(=O)[C@@H]2CSSC[C@@H]3NC(=O)[C@H](C)NC(=O)[C@H](CCC(=O)O)NC(=O)CNC(=O)[C@@H](NC(=O)[C@H](CCCCN)NC(=O)[C@H](C)N)CSSC[C@H](NC(=O)CNC(=O)[C@H](CC(=O)O)NC(=O)CNC(=O)[C@H](C)NC(=O)[C@H](CC(N)=O)NC(=O)[C@H](CSSC[C@@H](C(=O)N[C@@H](C)C(=O)N[C@@H](CCC(N)=O)C(=O)N[C@@H](CC(C)C)C(=O)N[C@@H](CO)C(=O)N[C@H](C(=O)O)[C@@H](C)O)NC(=O)[C@H](Cc4ccccc4)NC(=O)CNC(=O)[C@@H]4CCCN4C(=O)[C@H](CC(C)C)NC(=O)[C@H]([C@@H](C)O)NC(=O)[C@H](CC(C)C)NC(=O)[C@H](Cc4ccc(O)cc4)NC(=O)[C@H](C)NC(=O)[C@H](CC(=O)O)NC(=O)[C@H]([C@@H](C)O)NC1=O)NC(=O)[C@H](Cc1ccccc1)NC(=O)[C@H](CC(N)=O)NC(=O)[C@H](Cc1ccccc1)NC(=O)[C@H](CCC(N)=O)NC(=O)[C@H]([C@@H](C)O)NC(=O)[C@H](CC(=O)O)NC3=O)C(=O)N[C@@H](CCCNC(=N)N)C(=O)N2` [AS40] (H-AKCGEACDTQFNFCNAGDGCRCFITDAYLTLPGFCAQLST-OH; disulfide 3-20, 7-22, 14-35 (inferred); N-terminus and C-terminus assumed), in assay [1], the “binding” value is listed as “revealed binding properties” and the Ki was determined as 10.3 ± 2 nM. This compound also registered an LC50 in assay [2] of 47 ± 2.2 nM.

Compound `CC[C@H](C)[C@@H]1NC(=O)[C@H](C(C)C)NC(=O)[C@H](CC(C)C)NC(=O)CNC(=O)[C@H](C(C)C)NC(=O)[C@@H]2CCCN2C(=O)[C@H]([C@@H](C)CC)NC(=O)[C@@H]2CSSC[C@@H]3NC(=O)[C@H](C(C)C)NC(=O)CNC(=O)[C@H](CC(N)=O)NC(=O)[C@@H](NC(=O)[C@H](CO)NC(=O)[C@H](C)N)CSSC[C@H](NC(=O)[C@H](C)NC(=O)[C@H](CO)NC(=O)[C@H]([C@@H](C)O)NC(=O)CNC(=O)[C@H](CSSC[C@@H](C(=O)N[C@@H](CCCNC(=N)N)C(=O)N[C@@H](CC(N)=O)C(=O)N4CCC[C@H]4C(=O)N[C@@H](CO)C(=O)NCC(=O)O)NC(=O)[C@H](Cc4ccc(O)cc4)NC(=O)CNC1=O)NC(=O)[C@@H]1CCCN1C(=O)[C@@H]1CCCN1C(=O)[C@H](CCSC)NC(=O)[C@H](CCC(=O)O)NC(=O)[C@H](Cc1ccccc1)NC(=O)[C@@H]1CCCN1C(=O)[C@H](CO)NC3=O)C(=O)N[C@@H](CCCNC(=N)N)C(=O)N2` [PA1b, reference compound] (H-ASCNGVCSPFEMPPCGTSACRCIPVGLVIGYCRNPSG-OH; disulfide 3-20, 7-22, 15-32; N-terminus and C-terminus assumed) showed a Ki in assay [1] of 17 ± 1.1 nM. In assay [2], the LC50 is 79.8 ± 3.6 nM. Besides, the “effect on ramp membrane current (in words)” value in assay [4] (37.5 nM peptide) was “no effect”. Besides, the EC50 in assay [4] was 415 ± 75.6 nM.

Regarding “ASCPNVGAVCSPFETKPCGNVKDCRCLPWGLFFGTCINPTG (disulfide 3-24, 10-26, 18-36 (inferred)) [AG41]”, in assay [1], the “binding” value is “revealed binding properties” and the affinity, expressed as Ki, was 1.3 ± 0.6 nM. Also, the “toxicity relative to the original pea albumin 1b” value in assay [2] (compared with PA1b, Table 1) was “almost ten times superior”. In addition, the LC50 in assay [2] came to 5.44 ± 1.7 nM. In addition, the “decrease of ramp current amplitude measured at +50 mV” value in assay [4] (35 nM peptide) was “approximately 35%”. In assay [4] (35 nM peptide (control 68 pA)), the “ramp current amplitude measured at +50 mV” value is listed as 44 pA. For the same compound, the EC50 in assay [4] was 14.6 ± 0.4 nM. The “toxicity … (in words)” value in assay [3] is on record as “highly toxic”.

In the case of “DEC-W-G-PCSVLQTPP-CPLSK CYCIPLFLVVGY---CSHASS (bicyclic or more) [DS37, synthetic folded Medicago truncatula A1b peptide, cluster 1, non-canonical CYC motif]”, the “binding” value in assay [1] is on record as “did not present binding”. Besides, in assay [2], the LC50 entry is on record as “- ((−) scores a negative result (no toxicity nor binding in the toxin range assayed))”. Besides, the “toxicity … (in words)” value in assay [3] was “not toxic”.

Turning to “EFCSSVGSFCSPFNTNPCGYLGNCRCVPYYLYGGTCENPFG (disulfide 3-24, 10-26, 18-36 (inferred)) [EG41]”, in assay [1], the “binding” value is listed as “revealed binding properties” and the Ki was 72.8 ± 2.7 nM. In assay [2], this compound registered an LC50 of 75 ± 3.1 nM.

Turning to “GQCARVGMRCSRALPNPCGDIVTCRCVHLHLVGSTCIDYTGDGL (disulfide 3-24, 10-26, 18-36) [GL44]”, in assay [1], the “binding” value is given as “did not present binding” and the Ki is over 694 nM. For the same compound, the LC50 result in assay [2] is given as “- ((−) scores a negative result (no toxicity nor binding in the toxin range assayed))”.
